Laboratory results from patent publication US20100004485A1, “GABAPENTIN ENACARBIL SALTS AND PROCESSES FOR THEIR PREPARATION” (priority 2008, published 2010).

Experiments:
[1] = Solubility test in distilled water; assay type: physicochemical; conditions: for Solubility in water (class in words) / Solubility (g/ml water): distilled water; for Solubility (g/ml water): 100 mg sample
Experimental: Solubility was determined by placing 100 mg of sample material in a 50 ml glass beaker, adding 10 μL portions of distilled water and agitating until dissolved.

[2] = Hygroscopicity / water content at room conditions (TGA, FIG. 6); assay type: physicochemical; conditions: for Hygroscopicity: room conditions, GBPE-Ca compared to GBPE sodium salt
Experimental: Thermogravimetric Analysis (“TGA”) • TGA data obtained from TGA/DSC 1 of Mettler-Toledo or TA Instruments TGA 2959 • Heating range: 25-200 C; heating rate: 10° C./min, • Nitrogen flow 40 ml/min • Mass weight about 10 mg.

[3] = long period of storing
[4] = Thermogravimetric analysis (TGA): temperature at which thermal decomposition starts; assay type: physicochemical; conditions: 25-200 C, 10° C./min, nitrogen

Compound | Solubility in water (class in words) [1] | Hygroscopicity [2] | Stability of form during storage [3] | Solubility (g/ml water) [1] | Temperature at which decomposition starts [4] | Water content when kept in room conditions ([2]; FIG. 6) | Solubility compared to GBPE sodium salt [1]
CC(OC(=O)NCC1(CC(=O)O)CCCCC1)OC(=O)C(C)C (stereo not drawn) [GBPE amorphous, 1-{[(α-isobutanoyloxyethoxy)carbonyl]-aminomethyl}-1-cyclohexane acetic acid, reference compound] | insoluble | – | – | – | – | – | –
CC(OC(=O)NCC1(CC(=O)[O-])CCCCC1)OC(=O)C(C)C.[Na+] (stereo not shown) [GBPE sodium salt, reference compound] | – | extremely hydrophilic | – | – | – | – | –
CC(OC(=O)NCC1(CC(=O)[O-])CCCCC1)OC(=O)C(C)C.CC(OC(=O)NCC1(CC(=O)[O-])CCCCC1)OC(=O)C(C)C.[Ba+2] (stereo not shown) [GBPE-Ba salt] | freely soluble (a compound having a solubility of about 0.1 to about 1 g/ml) | non-hygroscopic | stability over a long period of time | 0.125 g/mL | 60 °C | contained no water | –
CC(OC(=O)NCC1(CC(=O)[O-])CCCCC1)OC(=O)C(C)C.CC(OC(=O)NCC1(CC(=O)[O-])CCCCC1)OC(=O)C(C)C.[Ca+2] (stereo not shown) [GBPE-Ca salt] | sparingly soluble (a compound having a solubility of about 0.01 g/ml to about 0.03 g/ml) | less hygroscopic | – | 0.016 g/mL | 70 °C | – | less soluble
CC(OC(=O)NCC1(CC(=O)[O-])CCCCC1)OC(=O)C(C)C.CC(OC(=O)NCC1(CC(=O)[O-])CCCCC1)OC(=O)C(C)C.[Mg+2] (stereo not shown) [GBPE-Mg salt] | sparingly soluble (a compound having a solubility of about 0.01 g/ml to about 0.03 g/ml) | – | – | 0.020 g/mL | 70 °C | – | –
